In patent publication US6489321B1, “Nonpeptide substituted benzothiazepines as vasopressin antagonists” (Ortho-McNeil Pharmaceutical, Inc., priority 1999, dated 2002):

What was measured:
[1] = target: vasopressin V1a receptor (Homo sapiens, UniProt P37288); experiment: In-vitro vasopressin receptor binding assay, V1a
[2] = target: T1, cloned human V2 receptor (Homo sapiens, UniProt P30518); experiment: In-vitro vasopressin receptor binding assay, V2; settings: footnote 1: IC50 values (μM); 3H-arginine-8-vasopressin
T1 construct: expressed in transfected cells
Description: Assay buffer is 50 mM Tris-Cl, 5 mM MgC12, 0.1% BSA (pH 7.5) containing 5 ug/ml of aprotinin, leupeptin, pepstatin, 50 ug/ml bacitracin, and 1 mM Pefabloc. H3 vasopressin is ^3H-arginine-8-vasopressin (68.5 Ci/mmol, final concentration in assay is 0.65-0.75nM). Into wells of 96-well round bottom polypropylene plates are added buffer, test compound, membrane (containing cloned human V2 receptor), and H3 vasopressin. The reaction plates are allowed to sit at room temperature for one hour. The samples are filtered through Unifilter GF/C plates (presoaked in 0.3 polyethyleneimine). The plates are washed 5 times with cold physiological saline containing 0.05% Tween 20. After drying, the bottom of the filter plates are sealed and 0.025 ml of Microscint-20 is added to each filter. The top of the plate is sealed, and the plate is counted. Non-specific binding is determined by the addition of 1.25 uM arginine-8-vasopressin in those wells. %Inh. is [formula]

Sequence of vasopressin V1a receptor (P37288 whole entry): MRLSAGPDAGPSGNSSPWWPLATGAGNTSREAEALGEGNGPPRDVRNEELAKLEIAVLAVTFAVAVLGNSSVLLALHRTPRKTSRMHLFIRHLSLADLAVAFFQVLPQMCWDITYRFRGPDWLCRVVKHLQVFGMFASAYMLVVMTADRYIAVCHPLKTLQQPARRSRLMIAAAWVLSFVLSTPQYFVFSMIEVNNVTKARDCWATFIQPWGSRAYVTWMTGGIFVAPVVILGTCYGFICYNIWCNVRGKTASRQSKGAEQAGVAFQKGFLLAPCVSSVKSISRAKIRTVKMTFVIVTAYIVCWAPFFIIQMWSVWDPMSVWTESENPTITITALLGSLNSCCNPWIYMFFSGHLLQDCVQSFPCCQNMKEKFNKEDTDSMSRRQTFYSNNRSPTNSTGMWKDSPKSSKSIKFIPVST
T1 sequence (P30518 whole entry): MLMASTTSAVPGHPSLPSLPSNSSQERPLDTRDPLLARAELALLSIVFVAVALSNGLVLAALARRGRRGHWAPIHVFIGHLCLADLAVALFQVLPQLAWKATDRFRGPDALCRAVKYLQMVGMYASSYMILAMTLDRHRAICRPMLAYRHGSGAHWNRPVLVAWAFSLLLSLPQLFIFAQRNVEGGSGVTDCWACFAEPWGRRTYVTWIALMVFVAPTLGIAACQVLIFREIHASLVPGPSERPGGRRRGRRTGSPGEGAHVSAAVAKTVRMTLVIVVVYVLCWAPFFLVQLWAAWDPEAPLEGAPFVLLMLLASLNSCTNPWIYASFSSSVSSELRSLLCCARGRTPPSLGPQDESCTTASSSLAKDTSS

inhibition at 0.1 µM ([1]; 0.1 μM test compound, read-out: Receptor Binding (% Inh. @ concentration in μM) V1a) [%]	IC50 [2] [µM]	melting point [°C]	Receptor Binding (% Inh. @ concentration in μM) V1a ([1]; 10 μM test compound) [% @ 10]	SMILES
16	0.004	204 to 208	–	O=C(O)CC1CCN(C(=O)c2ccc(NC(=O)c3ccccc3-c3ccccc3)cc2)c2ccccc2S1 (centres unmarked) [Compound 29, 2-Carboxymethyl-5-(4-(2-phenylbenzolylamino)benzoyl)-1,5-benzothiazepine]
–	0.43	–	63	CN(C)CCC1CCN(C(=O)c2ccc(NC(=O)c3ccccc3-c3ccccc3)cc2)c2ccccc2S1 (centres unmarked) [Compound 11, 2-(2-Dimethylaminoethyl)-5-(4-(2-phenylbenzoylamino)benzoyl)-1,5-benzothiazepine]
